Data on 21 compounds can be found in patent US6593335B1, “Potassium channel openers” (Abbott Laboratories, priority 1997, dated 2003).

Where only a bound is given, the exact number is not on record here.

In one series the target is potassium channels (Sus scrofa, UniProt F1SR11). Nature of the series: Functional potassium channel opening activity in isolated Landrace pig bladder strips (field-stimulated twitch). To be noted: for Landrace Pig Bladder Index: ED50 for P1075 divided by ED50 for the test agonist, averaged over tissues; for Landrace Pig Bladder pD2: negative logarithm of ED50; for Emax: pig, maximal efficacy relative to P1075, field stimulation 0.05Hz, 0.5 milli-seconds at 20 volts. The essentials: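 Landrace pig bladder strips with the mucosa removed were field-stimulated (0.05 Hz, 0.5 ms, 20 V) in Krebs Ringer bicarbonate containing propranolol, and primed with 80 mM KCl. Cumulative concentration-response curves gave maximal efficacy relative to a reference potassium channel opener, pD2, and a potency index (reference ED50/test ED50) averaged across tissues.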

`O=C1CCC2=C1C(c1ccc([N+](=O)[O-])s1)C1=C(CCS1(=O)=O)N2` (stereo not drawn) [Example 70] gave a melting point of 251 to 254 °C. In addition, at potassium channels, the “Landrace Pig Bladder Index” value came to 0.15, the “Landrace Pig Bladder pD2” value is 6.3 and the maximal effect (Emax) stood at 100%.

For `O=C1CCC2=C1C(c1ccc(F)c(C(F)(F)F)c1)C1=C(CCS1(=O)=O)N2` (stereo not drawn) [Example 57, 8-(4-fluoro-3-trifluoromethylphenyl)-2,3,4,5,6,8-hexahydro-7H-cyclopenta[b]thieno [2.3-e]pyridin-7-one, 1,1-dioxide], the melting point amounted to 254 °C. Also, on potassium channels, the “Landrace Pig Bladder Index” value came to 0.42, the “Landrace Pig Bladder pD2” value came to 6.8 and the Emax was 100%.

In turn, `CC(=O)C1=C(C)NC2=C(C1c1ccc(F)c(Br)c1)S(=O)(=O)CCC2` (stereo not drawn) [Example 66, 1-[8-(3-bromo-4-fluorophenyl)-3,4,5,8-tetrahydro-6-methyl-1.-dioxido-2H-thiopyrano[3,2-b]pyridin-7-yl)lethan-1-one] returned a melting point greater than 260 °C. Also, on potassium channels, the “Landrace Pig Bladder Index” value turned out to be 0.12, the “Landrace Pig Bladder pD2” value came to 6.3 and the Emax was 94%.

In the case of `CC1(C)CCC2=C(C1=O)C(c1ccc(F)c(Br)c1)C1=C(CCS1(=O)=O)N2` (stereo not drawn) [Example 116, 9-(3-bromo-4-fluorophenyl)-7,7-dimethyl-2,3,5,6,7,9-hexahydrothieno[3.2-b]quinolin-8(4H)-one, 1,1-dioxide], the melting point is greater than 270 °C. Further, on potassium channels, the “Landrace Pig Bladder Index” value is recorded as 0.16, the “Landrace Pig Bladder pD2” value was 6.3 and the maximal response (Emax) stood at 100%.

Turning to `O=C1CCC2=C1C(c1ccc(Cl)c(Cl)c1)C1=C(CCS1(=O)=O)N2` (stereo not drawn) [Example 60, 8-(3 4-dichlorophenyl)-2,3 4,5,6,8-hexahydro-7H-cyclopenta[b]thieno [2,3-e]pyridin-7-one, 1,1-dioxide], the melting point is greater than 260 °C. At potassium channels, the “Landrace Pig Bladder Index” value is recorded as 0.60, the “Landrace Pig Bladder pD2” value is on record as 6.9 and the Emax was determined as 100%.

`N#Cc1cccc(C2C3=C(CCC3=O)NC3=C2S(=O)(=O)CC3)c1` (stereo not drawn) [Example 52, 8-(3-cyanophenyl)-2,3,4,5,6,8-hexahydro-7H-cyclopenta[b]thieno [2.3-e]pyridin-7-one, 1,1-dioxide] displayed a melting point of 156 to 176 °C. On potassium channels, the “Landrace Pig Bladder Index” value amounted to 0.018, the “Landrace Pig Bladder pD2” value is given as 5.6 and the Emax was 100%.

`O=S1(=O)CCC2=C1C(c1ccc(Cl)c(C(F)(F)F)c1)C1=C(CCS1(=O)=O)N2` [Example 122] returned a melting point greater than 260 °C. At potassium channels, the “Landrace Pig Bladder Index” value is reported as 0.012, the “Landrace Pig Bladder pD2” value was determined as 4.8 and the Emax worked out at 94%.

Compound `O=C1CCCC2=C1C(c1ccc(F)c(Cl)c1)C1=C(CCS1(=O)=O)N2` (single isomer, unassigned; (+)) [Example 109, (+)-9-(3-chloro-4-fluorophenyl)-2,3,5,6,7,9-hexahydrothieno[3,2-b]quinolin-8(4H)-one, 1,1-dioxide] yielded a melting point greater than 250 °C. At potassium channels, the “Landrace Pig Bladder Index” value amounted to 0.36, the “Landrace Pig Bladder pD2” value amounted to 6.6 and the Emax stood at 100%.

In turn, `O=C1CCC2=C1C(c1ccc(F)c(Br)c1)C1=C(CCS1(=O)=O)N2` (stereo not drawn) [Example 56, 8-(3-bromo-4-fluorophenyl)-2,3,4,5,6,8-hexahydro-7H-cyclopenta[b]thieno[2,3-e]pyridin-7-one, 1,1-dioxide] registered a melting point greater than 260 °C. In addition, at potassium channels, the “Landrace Pig Bladder Index” value was 0.88, the “Landrace Pig Bladder pD2” value worked out at 7.1 and the Emax came out at 97%.

The compound `O=S1(=O)CCC2=C1C(c1ccc(F)c(Cl)c1)C1=C(CCS1(=O)=O)N2` [Example 74] yielded a melting point greater than 260 °C. On potassium channels, the “Landrace Pig Bladder Index” value came to 0.081, the “Landrace Pig Bladder pD2” value was 6.1 and the Emax is 100%.

Compound `O=S1(=O)CCC2=C1C(c1ccc(Cl)c(Cl)c1)C1=C(CCS1(=O)=O)N2` [Example 77] had a melting point greater than 260 °C. In addition, on potassium channels, the “Landrace Pig Bladder Index” value was 0.046, the “Landrace Pig Bladder pD2” value worked out at 5.5 and the Emax was 93%.

`O=C1CCCC2=C1C(c1ccc(F)c(Cl)c1)C1=C(CCS1(=O)=O)N2` (stereo not drawn) [Example 81, 9-(3-chloro-4-fluorophenyl)-2,3,5,6,7,9-hexahydrothieno [3.2-b]quinolin-8(4H)-one, 1 1-dioxide] registered a melting point greater than 260 °C. For the same compound, on potassium channels, the “Landrace Pig Bladder Index” value came out at 0.39, the “Landrace Pig Bladder pD2” value was 6.4 and the Emax was 91%.

Turning to `O=S1(=O)CCC2=C1C(c1ccc3nonc3c1)C1=C(CCS1(=O)=O)N2` [Example 123], the melting point was greater than 260 °C. At potassium channels, the “Landrace Pig Bladder Index” value came to 0.0047, the “Landrace Pig Bladder pD2” value was 4.5 and the Emax amounted to 98%.

`O=S1(=O)CCC2=C1C(c1ccc(F)c(C(F)(F)F)c1)C1=C(CCS1(=O)=O)N2` [Example 65] displayed a melting point greater than 260 °C. Further, on potassium channels, the “Landrace Pig Bladder Index” value was found to be 0.048, the “Landrace Pig Bladder pD2” value is 6.0 and the Emax amounted to 100%.

In turn, `CC1=C(C(=O)O)C(c2ccc(F)c(Br)c2)C2=C(CCS2(=O)=O)N1` (stereo not drawn) [Example 106, 7-(3-bromo-4-fluorophenyl)-5-methyl-2,3,4,7-tetrahydrothieno[3.2-b]pyridine-6-carboxylic acid, 1,1-dioxide] returned a melting point of 220 to 223 °C. For the same compound, on potassium channels, the “Landrace Pig Bladder Index” value is 0.014, the “Landrace Pig Bladder pD2” value turned out to be 5.1 and the Emax was determined as 98%.

For `CC1=C(C(=O)O)C(c2ccc(F)c(Br)c2)C2=C(CCCS2(=O)=O)N1` (stereo not drawn) [Example 107], the melting point lay within 208 to 210 °C. Besides, at potassium channels, the “Landrace Pig Bladder Index” value is listed as 0.015, the “Landrace Pig Bladder pD2” value turned out to be 5.2 and the Emax is 100%.

Regarding `O=S1(=O)CCC2=C1C(c1ccc(Br)c(Br)c1)C1=C(CCS1(=O)=O)N2` [Example 124], the melting point was greater than 260 °C. In addition, at potassium channels, the “Landrace Pig Bladder Index” value is recorded as 0.025, the “Landrace Pig Bladder pD2” value was found to be 5.3 and the Emax was found to be 99%.

Turning to `O=[N+]([O-])c1cccc(C2C3=C(CCS3(=O)=O)NC3=C2S(=O)(=O)CC3)c1` [Example 73], the melting point lay in the range of 248 to 252 °C. For the same compound, at potassium channels, the “Landrace Pig Bladder Index” value is 0.0022, the “Landrace Pig Bladder pD2” value turned out to be 4.4 and the Emax stood at 98%.

With `N#Cc1cccc(C2C3=C(CCS3(=O)=O)NC3=C2S(=O)(=O)CC3)c1` [Example 62, 8-(3-cyanophenyl)-2,3,4,5,6,8-hexahydrodithieno [3.2-b:2′,3′-e]pyridine. 1,1,7,7-tetraoxide], the melting point is 248 °C.

Compound `O=C1CCC2=C1C(c1ccc(F)c(I)c1)C1=C(CCS1(=O)=O)N2` (stereo not drawn) [Example 90] came in with a melting point greater than 250 °C.

`O=C1CCCC2=C1C(c1ccc(Br)s1)C1=C(CCS1(=O)=O)N2` (stereo not drawn) [Example 128, 9-(5-bromo-2-thienyl)-2,3,5,6,7,9-hexahydrothieno[3,2-b]quinolin-8(4H)-one, 1,1-dioxide]: the melting point is greater than 250 °C.
